Experimental data as given in the NIST ThermoML archive (doi:10.1016/j.jct.2016.03.026).

Assay: xn = mol fraction of the nth substance listed
Conditions: Fluid (supercritical or subcritical phases), Vibrating tube method, x1 = 0.97

O=C=O [carbon dioxide] + CO
Conditions | mass density [kg/m3]
304.21 K, 16700 kPa | 863.76
304.21 K, 16725 kPa | 864.02
304.21 K, 16750 kPa | 864.2
304.21 K, 16775 kPa | 864.47
304.21 K, 16800 kPa | 864.63
304.21 K, 16825 kPa | 864.86
304.21 K, 16850 kPa | 865.05
304.21 K, 16875 kPa | 865.26
304.21 K, 16900 kPa | 865.51
304.21 K, 16925 kPa | 865.7
304.21 K, 16950 kPa | 865.9
304.21 K, 16975 kPa | 866.12
304.21 K, 17000 kPa | 866.34
304.21 K, 17025 kPa | 866.56
304.21 K, 17050 kPa | 866.78
304.21 K, 17075 kPa | 866.99
304.21 K, 17100 kPa | 867.2
304.21 K, 17125 kPa | 867.4
304.21 K, 17150 kPa | 867.63
304.21 K, 17175 kPa | 867.77
304.21 K, 17200 kPa | 867.99
304.21 K, 17225 kPa | 868.2
304.21 K, 17250 kPa | 868.43
304.21 K, 17275 kPa | 868.66
304.21 K, 17300 kPa | 868.87
304.21 K, 17325 kPa | 869.01
304.21 K, 17350 kPa | 869.28
304.21 K, 17375 kPa | 869.42
304.21 K, 17400 kPa | 869.69
304.21 K, 17425 kPa | 869.89
304.21 K, 17450 kPa | 870.09
304.21 K, 17475 kPa | 870.29
304.21 K, 17500 kPa | 870.48
304.21 K, 17525 kPa | 870.66
304.21 K, 17550 kPa | 870.86
304.21 K, 17575 kPa | 871.06
304.21 K, 17600 kPa | 871.23
304.21 K, 17625 kPa | 871.44
304.21 K, 17650 kPa | 871.68
304.21 K, 17675 kPa | 871.84
304.21 K, 17700 kPa | 872.08
304.21 K, 17725 kPa | 872.29
304.21 K, 17750 kPa | 872.45
304.21 K, 17775 kPa | 872.68
304.21 K, 17800 kPa | 872.83
304.21 K, 17825 kPa | 873.02
304.21 K, 17850 kPa | 873.25
304.21 K, 17875 kPa | 873.48
304.21 K, 17900 kPa | 873.63
304.21 K, 17925 kPa | 873.87
304.21 K, 17950 kPa | 874.01
304.21 K, 17975 kPa | 874.23
304.21 K, 18000 kPa | 874.46
304.21 K, 18025 kPa | 874.62
304.21 K, 18050 kPa | 874.83
304.21 K, 18075 kPa | 875.05
304.21 K, 18100 kPa | 875.2
304.21 K, 18125 kPa | 875.42
304.21 K, 18150 kPa | 875.58
304.21 K, 18175 kPa | 875.78
304.21 K, 18200 kPa | 876
304.21 K, 18225 kPa | 876.22
304.21 K, 18250 kPa | 876.35
304.21 K, 18275 kPa | 876.56
304.21 K, 18300 kPa | 876.78
304.21 K, 18325 kPa | 876.99
304.21 K, 18350 kPa | 877.14
304.21 K, 18375 kPa | 877.36
304.21 K, 18400 kPa | 877.5
304.21 K, 18425 kPa | 877.73
304.21 K, 18450 kPa | 877.88
304.21 K, 18475 kPa | 878.11
304.21 K, 18500 kPa | 878.3
304.21 K, 18525 kPa | 878.46
304.21 K, 18550 kPa | 878.68
304.21 K, 18575 kPa | 878.87
304.21 K, 18600 kPa | 879.03
304.21 K, 18625 kPa | 879.24
304.21 K, 18650 kPa | 879.38
304.21 K, 18675 kPa | 879.61
304.21 K, 18700 kPa | 879.76
304.21 K, 18725 kPa | 879.99
304.21 K, 18750 kPa | 880.19
304.21 K, 18775 kPa | 880.38
304.21 K, 18800 kPa | 880.58
304.21 K, 18825 kPa | 880.78
304.21 K, 18850 kPa | 880.89
304.21 K, 18875 kPa | 881.09
304.21 K, 18900 kPa | 881.28
304.21 K, 18925 kPa | 881.49
304.21 K, 18950 kPa | 881.68
304.21 K, 18975 kPa | 881.88
304.21 K, 19000 kPa | 882.06
304.21 K, 19025 kPa | 882.19
304.21 K, 19050 kPa | 882.43
304.21 K, 19075 kPa | 882.62
304.21 K, 19100 kPa | 882.73
304.21 K, 19125 kPa | 882.92
304.21 K, 19150 kPa | 883.11
304.21 K, 19175 kPa | 883.3
304.21 K, 19200 kPa | 883.48
304.21 K, 19225 kPa | 883.65
304.21 K, 19250 kPa | 883.86
304.21 K, 19275 kPa | 884.07
304.21 K, 19300 kPa | 884.25
304.21 K, 19325 kPa | 884.43
304.21 K, 19350 kPa | 884.6
304.21 K, 19375 kPa | 884.78
304.21 K, 19400 kPa | 884.95
304.21 K, 19425 kPa | 885.12
304.21 K, 19450 kPa | 885.28
304.21 K, 19475 kPa | 885.46
304.21 K, 19500 kPa | 885.62
304.21 K, 19525 kPa | 885.78
304.21 K, 19550 kPa | 886.04
304.21 K, 19575 kPa | 886.21
304.21 K, 19600 kPa | 886.37
304.21 K, 19625 kPa | 886.54
304.21 K, 19650 kPa | 886.76
304.21 K, 19675 kPa | 886.92
304.21 K, 19700 kPa | 887.09
304.21 K, 19725 kPa | 887.24
304.21 K, 19750 kPa | 887.4
304.21 K, 19775 kPa | 887.64
304.21 K, 19800 kPa | 887.8
304.21 K, 19825 kPa | 887.96
304.21 K, 19850 kPa | 888.12
304.21 K, 19875 kPa | 888.28
304.21 K, 19900 kPa | 888.48
304.21 K, 19925 kPa | 888.67
304.21 K, 19950 kPa | 888.82
304.21 K, 19975 kPa | 888.98
304.21 K, 20000 kPa | 889.2
313.15 K, 8375 kPa | 468.68
313.15 K, 8400 kPa | 477.47
313.15 K, 8425 kPa | 486.09
313.15 K, 8450 kPa | 494.72
313.15 K, 8475 kPa | 503.03
313.15 K, 8500 kPa | 510.78
313.15 K, 8525 kPa | 518.43
313.15 K, 8550 kPa | 525.63
313.15 K, 8575 kPa | 531.85
313.15 K, 8600 kPa | 538.44
313.15 K, 8625 kPa | 544.56
313.15 K, 8650 kPa | 551.14
313.15 K, 8675 kPa | 556.46
313.15 K, 8700 kPa | 562.19
313.15 K, 8725 kPa | 566.94
313.15 K, 8750 kPa | 571.39
313.15 K, 8775 kPa | 576
313.15 K, 8800 kPa | 580.21
313.15 K, 8825 kPa | 583.78
313.15 K, 8850 kPa | 587.78
313.15 K, 8875 kPa | 591.7
313.15 K, 8900 kPa | 595.4
313.15 K, 8925 kPa | 598.87
313.15 K, 8950 kPa | 601.87
313.15 K, 8975 kPa | 604.9
313.15 K, 9000 kPa | 608.05
313.15 K, 9025 kPa | 611
313.15 K, 9050 kPa | 613.79
313.15 K, 9075 kPa | 616.51
313.15 K, 9100 kPa | 619.14
313.15 K, 9125 kPa | 621.62
313.15 K, 9150 kPa | 624.11
313.15 K, 9175 kPa | 626.69
313.15 K, 9200 kPa | 629
313.15 K, 9225 kPa | 631.2
313.15 K, 9250 kPa | 633.38
313.15 K, 9275 kPa | 635.44
313.15 K, 9300 kPa | 637.48
313.15 K, 9325 kPa | 639.32
313.15 K, 9350 kPa | 641.4
313.15 K, 9375 kPa | 643.26
313.15 K, 9400 kPa | 645.2
313.15 K, 9425 kPa | 646.98
313.15 K, 9450 kPa | 648.9
313.15 K, 9475 kPa | 650.62
313.15 K, 9500 kPa | 652.27
313.15 K, 9525 kPa | 653.94
313.15 K, 9550 kPa | 655.55
313.15 K, 9575 kPa | 657.12
313.15 K, 9600 kPa | 658.64
313.15 K, 9625 kPa | 660.18
313.15 K, 9650 kPa | 661.7
313.15 K, 9675 kPa | 663.21
313.15 K, 9700 kPa | 664.7
313.15 K, 9725 kPa | 666.14
313.15 K, 9750 kPa | 667.47
313.15 K, 9775 kPa | 668.89
313.15 K, 9800 kPa | 670.26
313.15 K, 9825 kPa | 671.58
313.15 K, 9850 kPa | 672.87
313.15 K, 9875 kPa | 674.13
313.15 K, 9900 kPa | 675.44
313.15 K, 9925 kPa | 676.66
313.15 K, 9950 kPa | 677.96
313.15 K, 9975 kPa | 679.1
313.15 K, 10000 kPa | 680.33
313.15 K, 10025 kPa | 681.48
313.15 K, 10050 kPa | 682.54
313.15 K, 10075 kPa | 683.7
313.15 K, 10100 kPa | 684.8
313.15 K, 10125 kPa | 685.84
313.15 K, 10150 kPa | 686.83
313.15 K, 10175 kPa | 687.88
313.15 K, 10200 kPa | 688.8
313.15 K, 10225 kPa | 689.94
313.15 K, 10250 kPa | 690.95
313.15 K, 10275 kPa | 691.93
313.15 K, 10300 kPa | 693
313.15 K, 10325 kPa | 693.97
313.15 K, 10350 kPa | 694.91
313.15 K, 10375 kPa | 695.92
313.15 K, 10400 kPa | 696.92
313.15 K, 10425 kPa | 697.78
313.15 K, 10450 kPa | 698.73
313.15 K, 10475 kPa | 699.66
313.15 K, 10500 kPa | 700.62
313.15 K, 10525 kPa | 701.51
313.15 K, 10550 kPa | 702.39
313.15 K, 10575 kPa | 703.29
313.15 K, 10600 kPa | 704.13
313.15 K, 10625 kPa | 705.05
313.15 K, 10650 kPa | 705.9
313.15 K, 10675 kPa | 706.75
313.15 K, 10700 kPa | 707.66
313.15 K, 10725 kPa | 708.5
313.15 K, 10750 kPa | 709.33
313.15 K, 10775 kPa | 710.14
313.15 K, 10800 kPa | 710.93
313.15 K, 10825 kPa | 711.74
313.15 K, 10850 kPa | 712.55
313.15 K, 10875 kPa | 713.33
313.15 K, 10900 kPa | 714.15
313.15 K, 10925 kPa | 714.94
313.15 K, 10950 kPa | 715.71
313.15 K, 10975 kPa | 716.52
313.15 K, 11000 kPa | 717.28
313.15 K, 11025 kPa | 718.03
313.15 K, 11050 kPa | 718.76
313.15 K, 11075 kPa | 719.52
313.15 K, 11100 kPa | 720.27
313.15 K, 11125 kPa | 720.97
